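GI50: concentration for 50% inhibition of growth. The concentration for full growth arrest is given as TGI.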
Tests used:
Assay in all cases: NCI anticancer screen, dose series, 384-well format
PC-3 prostate = tested on: PC-3 prostate
HCT-15 colon = tested on: HCT-15 colon
DU-145 prostate = tested on: DU-145 prostate
SW-620 colon = tested on: SW-620 colon
HT29 colon = tested on: HT29 colon
SNB-19 CNS = tested on: SNB-19 CNS
EKVX NSCLC = tested on: EKVX NSCLC
KM12 colon = tested on: KM12 colon
BT-549 breast = tested on: BT-549 breast
LOX IMVI melanoma = tested on: LOX IMVI melanoma
CAKI-1 renal = tested on: CAKI-1 renal
SF-539 CNS = tested on: SF-539 CNS
UACC-257 melanoma = tested on: UACC-257 melanoma
CCRF-CEM leukemia = tested on: CCRF-CEM leukemia
RPMI-8226 leukemia = tested on: RPMI-8226 leukemia
RXF 393 renal = tested on: RXF 393 renal
NCI-H460 NSCLC = tested on: NCI-H460 NSCLC
SR leukemia = tested on: SR leukemia
MDA-MB-231 breast = tested on: MDA-MB-231 breast
SK-MEL-28 melanoma = tested on: SK-MEL-28 melanoma
NCI-H522 lung = tested on: NCI-H522 lung
ACHN renal = tested on: ACHN renal
SF-295 CNS = tested on: SF-295 CNS
SF-268 CNS = tested on: SF-268 CNS
MCF7 breast = tested on: MCF7 breast
MALME-3M melanoma = tested on: MALME-3M melanoma
HL-60(TB) leukemia = tested on: HL-60(TB) leukemia
SK-OV-3 ovarian = tested on: SK-OV-3 ovarian
SN12C renal = tested on: SN12C renal
A549 NSCLC = tested on: A549 NSCLC
HOP-62 NSCLC = tested on: HOP-62 NSCLC
HCT-116 colon = tested on: HCT-116 colon
UO-31 renal = tested on: UO-31 renal
COLO 205 colon = tested on: COLO 205 colon
T-47D breast = tested on: T-47D breast
NCI-H322M lung = tested on: NCI-H322M lung
MOLT-4 leukemia = tested on: MOLT-4 leukemia
M14 melanoma = tested on: M14 melanoma
HOP-92 NSCLC = tested on: HOP-92 NSCLC
UACC-62 melanoma = tested on: UACC-62 melanoma
HS 578T breast = tested on: HS 578T breast
OVCAR-5 ovarian = tested on: OVCAR-5 ovarian
MDA-MB-468 breast = tested on: MDA-MB-468 breast
SK-MEL-2 melanoma = tested on: SK-MEL-2 melanoma
OVCAR-4 ovarian = tested on: OVCAR-4 ovarian
IGROV1 ovarian = tested on: IGROV1 ovarian
U251 glioblastoma = tested on: U251 glioblastoma
OVCAR-3 ovarian = tested on: OVCAR-3 ovarian
SNB-75 CNS = tested on: SNB-75 CNS
K-562 leukemia = tested on: K-562 leukemia
NCI-H226 lung = tested on: NCI-H226 lung
A498 renal = tested on: A498 renal
MDA-MB-435 melanoma = tested on: MDA-MB-435 melanoma
786-0 renal = tested on: 786-0 renal
TK-10 renal = tested on: TK-10 renal
OVCAR-8 ovarian = tested on: OVCAR-8 ovarian

CC1(C)CCC(CN2CCN(c3ccc(C(=O)NS(=O)(=O)c4ccc(NCC5CCOCC5)c([N+](=O)[O-])c4)c(Oc4cnc5[nH]ccc5c4)c3)CC2)=C(c2ccc(Cl)cc2)C1
GI50 (PC-3 prostate): 4.61 µM
TGI (PC-3 prostate): 12.2 µM
GI50 (HCT-15 colon): 5.11 µM
TGI (HCT-15 colon): 9.19 µM
GI50 (DU-145 prostate): 5.66 µM
TGI (DU-145 prostate): 18.5 µM
GI50 (SW-620 colon): 6.09 µM
TGI (SW-620 colon): 7.57 µM
GI50 (HT29 colon): 5.16 µM
TGI (HT29 colon): 7.3 µM
GI50 (SNB-19 CNS): 5.63 µM
TGI (SNB-19 CNS): 11 µM
GI50 (EKVX NSCLC): 6.98 µM
TGI (EKVX NSCLC): 14.3 µM
GI50 (KM12 colon): 5.75 µM
TGI (KM12 colon): 8.84 µM
GI50 (BT-549 breast): 3.79 µM
TGI (BT-549 breast): 9.18 µM
GI50 (LOX IMVI melanoma): 9.62 µM
GI50 (CAKI-1 renal): 5.47 µM
TGI (CAKI-1 renal): 11.7 µM
GI50 (SF-539 CNS): 3.6 µM
TGI (SF-539 CNS): 7.94 µM
GI50 (UACC-257 melanoma): 5.19 µM
TGI (UACC-257 melanoma): 7 µM
GI50 (CCRF-CEM leukemia): 7.94 µM
GI50 (RPMI-8226 leukemia): 1.75 µM
TGI (RPMI-8226 leukemia): 3.99 µM
GI50 (RXF 393 renal): 3.41 µM
TGI (RXF 393 renal): 5.69 µM
GI50 (NCI-H460 NSCLC): 4.46 µM
TGI (NCI-H460 NSCLC): 7.85 µM
GI50 (SR leukemia): 1.38 µM
TGI (SR leukemia): 2.68 µM
GI50 (MDA-MB-231 breast): 2.49 µM
TGI (MDA-MB-231 breast): 6.01 µM
GI50 (SK-MEL-28 melanoma): 4.05 µM
TGI (SK-MEL-28 melanoma): 9.58 µM
GI50 (NCI-H522 lung): 14.9 µM
TGI (NCI-H522 lung): 20.2 µM
GI50 (ACHN renal): 4.22 µM
TGI (ACHN renal): 11.6 µM
GI50 (SF-295 CNS): 3.98 µM
TGI (SF-295 CNS): 7.88 µM
GI50 (SF-268 CNS): 3.84 µM
TGI (SF-268 CNS): 8.19 µM
GI50 (MCF7 breast): 4.38 µM
TGI (MCF7 breast): 8.24 µM
GI50 (MALME-3M melanoma): 2.81 µM
TGI (MALME-3M melanoma): 6.5 µM
GI50 (HL-60(TB) leukemia): 0.105 µM
TGI (HL-60(TB) leukemia): 0.802 µM
GI50 (SK-OV-3 ovarian): 15.5 µM
TGI (SK-OV-3 ovarian): 21.1 µM
GI50 (SN12C renal): 4.52 µM
TGI (SN12C renal): 14.9 µM
GI50 (A549 NSCLC): 4.97 µM
TGI (A549 NSCLC): 11.2 µM
GI50 (HOP-62 NSCLC): 6.2 µM
TGI (HOP-62 NSCLC): 9.88 µM
GI50 (HCT-116 colon): 4.46 µM
TGI (HCT-116 colon): 11.8 µM
GI50 (UO-31 renal): 3.63 µM
TGI (UO-31 renal): 8 µM
GI50 (COLO 205 colon): 3.81 µM
TGI (COLO 205 colon): 6.68 µM
GI50 (T-47D breast): 5.12 µM
TGI (T-47D breast): 8.12 µM
GI50 (NCI-H322M lung): 4.57 µM
TGI (NCI-H322M lung): 11.5 µM
GI50 (MOLT-4 leukemia): 1.26 µM
TGI (MOLT-4 leukemia): 2.62 µM
GI50 (M14 melanoma): 3.51 µM
TGI (M14 melanoma): 9.14 µM
GI50 (HOP-92 NSCLC): 1.83 µM
TGI (HOP-92 NSCLC): 3.73 µM
GI50 (UACC-62 melanoma): 4.95 µM
TGI (UACC-62 melanoma): 7.13 µM
GI50 (HS 578T breast): 3.14 µM
TGI (HS 578T breast): 7.93 µM
GI50 (OVCAR-5 ovarian): 3.53 µM
TGI (OVCAR-5 ovarian): 6.62 µM
GI50 (MDA-MB-468 breast): 3.67 µM
TGI (MDA-MB-468 breast): 7.05 µM
GI50 (SK-MEL-2 melanoma): 1.93 µM
TGI (SK-MEL-2 melanoma): 3.43 µM
GI50 (OVCAR-4 ovarian): 2.98 µM
TGI (OVCAR-4 ovarian): 6.29 µM
GI50 (IGROV1 ovarian): 2.81 µM
TGI (IGROV1 ovarian): 7.24 µM
GI50 (U251 glioblastoma): 5.89 µM
TGI (U251 glioblastoma): 9.82 µM
GI50 (OVCAR-3 ovarian): 4.55 µM
TGI (OVCAR-3 ovarian): 7.36 µM
GI50 (SNB-75 CNS): 4.58 µM
TGI (SNB-75 CNS): 9.27 µM
GI50 (K-562 leukemia): 2.13 µM
TGI (K-562 leukemia): 4.28 µM
GI50 (NCI-H226 lung): 7.08 µM
TGI (NCI-H226 lung): 10.6 µM
GI50 (A498 renal): 3.64 µM
TGI (A498 renal): 8.99 µM
GI50 (MDA-MB-435 melanoma): 3.43 µM
TGI (MDA-MB-435 melanoma): 16.6 µM
GI50 ([…]-0 renal): 3.15 µM
TGI (786-0 renal): 9.12 µM
GI50 (TK-10 renal): 6.84 µM
TGI (TK-10 renal): 12.4 µM
GI50 (OVCAR-8 ovarian): 4.44 µM
TGI (OVCAR-8 ovarian): 7.43 µM

From PubChem BioAssay (NCI)
